Source: PMC6100582 (Molecules : A Journal of Synthetic Chemistry and Natural …, 2018)
pIC50: −log10 of the molar value. ≈ marks a conversion by molar mass, not a printed value. Where two headings read alike, the source gives them in different places.

Columns and labels:
[1] = test system: HL-60 (acute myeloid leukemia); experiment: Antiproliferative screening (cytostatic activity); assay type: cell-based; conditions: Homo sapiens, HL-60, 72 h, read-out: IC50 HL-60; for IC50: DXT and STS values in nM (footnote)
Method: (§1) Cytostatic activity was evaluated in vitro on nine different types of human tumor cell lines: Capan-1, Hap1, HCT-116, and NCI-H460, as well as hematological tumors such as DND-41, HL-60, K-562, MM.1S and Z-138 as described previously. All human tumor cell lines were acquired from the American Type Culture Collection (ATCC, Manassas, VA, USA), except for the DND-41 cell line which was purchased from the Deutsche Sammlung von Mikroorganismen und Zellkulturen (DSMZ Leibniz-Institut, Braunschweig, Germany) and the Hap1 cell line which was purchased from Horizon Discovery (Waterbeach, UK). Capan-1, Hap1, HL-60, K-562, Z-138, MM.1S and DND-41 were cultured in Iscove′s Modified Dulbecco′s Medium (IMDM, Gibco Life Technologies, Gaithersburg, MD, USA), HCT-116 were grown in McCoy′s 5A Medium (Gibco Life Technologies) and NCI-H460 were cultured in RPMI (Gibco Life Technologies). All media were supplemented with 10% FBS (HyClone, GE Healthcare Life Sciences, USA). Adherent cell lines HCT-116, Hap1, NCI-H460, and Capan-1 cells were seeded at a density between 400 and 1250 cells per well, in 384-well, black-walled, clear-bottomed tissue culture plates (Greiner Bio-One, Kremsmünster, Germany). After overnight incubation, cells were treated with test compounds at four different concentrations ranging from 100 to 0.8 µM. Suspension cell lines HL-60, K-562, Z-138, MM.1S, and DND-41 were seeded at densities ranging from 3000 to 10,000 cells per well in 384-well, black-walled, clear-bottomed tissue culture plates containing test compounds at the same four concentrations. The plates were incubated and monitored at 37 °C for 72 h in an IncuCyte (Essen BioScience Inc., Ann Arbor, MI, USA) for real-time imaging. Images were taken every 3 h, with one field image per well under 10× magnification. All compounds were tested with duplicate data points and averaged. […]

[2] = test system: Hap1 (chronic myeloid leukemia); experiment: Antiproliferative screening (cytostatic activity); assay type: cell-based; conditions: Homo sapiens, HAP1, 72 h, read-out: IC50 Hap1; for IC50: DXT and STS values in nM (footnote)
Method: as §1

[3] = test system: DND-41 (acute lymphoblastic leukemia); experiment: Antiproliferative screening (cytostatic activity); assay type: cell-based, human; conditions: Homo sapiens, DND41, 72 h, 72 h, read-out: IC50 DND-41; for IC50: DXT and STS values in nM (footnote)
Method: as §1

[4] = test system: Mycobacterium marinum CAMP 5644; experiment: Antimycobacterial susceptibility assay (MIC determination); assay type: cell-based; conditions: Mycobacterium marinum, CAMP5644, 504 h
Method: The broth dilution micro-method in Middlebrook 7H9 medium (Difco, Lawrence, KS, USA) supplemented with ADC Enrichment (Becton, Dickinson and Comp.) was used to determine MIC as previously described. […] Bacterial inocula were prepared by transferring colonies from culture to sterile water. The cell density was adjusted to 0.5 McFarland units using a densitometer (Densi-La-Meter, LIAP, Riga, Latvia). The final inoculum was made by 1:1000 dilution of the suspension with sterile water. Drug-free controls, sterility controls and controls consisted of medium and DMSO (Sigma-Aldrich, St. Louis, MO, USA) alone were included. […] Ciprofloxacin (CIP), rifampicin (RIF) and isoniazid (INH) (Sigma-Aldrich, St. Louis, MO, USA) were used as the standards.

[5] = test system: Mycobacterium tuberculosis H37Ra; experiment: as above; assay type: cell-based; conditions: 168 h, 7 days, 37 °C, alamarBlue
Method: At log phase growth, a culture sample (10 mL) was centrifuged at 15,000 rpm/20 min using a bench-top centrifuge (MPW-65R, MPW Med Instruments, Poland). Following removal of the supernatant, the pellet was washed in fresh Middlebrook 7H9GC broth and re-suspended in fresh, ODAC-supplemented MB (10 mL). The turbidity was adjusted to match McFarland standard No. 1 (3 × 10^8 CFU) with MB broth. A further 1:20 dilution of the culture was then performed in MB broth. The antimicrobial susceptibility of M. tuberculosis was investigated in a 96-well plate format. In these experiments, sterile deionised water (300 µl) was added to all outer-perimeter wells of the plates to minimize evaporation of the medium in the test wells during incubation. Each evaluated compound (100 µL) was incubated with M. tuberculosis (100 µl). Dilutions of each compound were prepared in duplicate. For all synthesized compounds, final concentrations ranged from 1000 μg/mL to 8 μg/mL. All compounds were dissolved in DMSO, and subsequent dilutions were made in supplemented MB. […] Following incubation, 10% of alamarBlue (Difco, Lawrence, KS, USA) was mixed into each well, and readings at 570 nm and 600 nm were taken, initially for background subtraction and subsequently after 24 h reincubation. […] For non-interfering compounds, a blue colour in the well was interpreted as the absence of growth, and a pink colour was scored as growth.

[6] = test system: Capan-1 (pancreatic adenocarcinoma); experiment: Antiproliferative screening (cytostatic activity); assay type: cell-based; conditions: Homo sapiens, CAPAN-1, 72 h, read-out: IC50 Capan-1
Method: (§2) All human tumor cell lines were acquired from the American Type Culture Collection (ATCC, Manassas, VA, USA), except for the DND-41 cell line which was purchased from the Deutsche Sammlung von Mikroorganismen und Zellkulturen (DSMZ Leibniz-Institut, Braunschweig, Germany) and the Hap1 cell line which was purchased from Horizon Discovery (Waterbeach, UK). […] All media were supplemented with 10% FBS (HyClone, GE Healthcare Life Sciences, USA). […] After overnight incubation, cells were treated with test compounds at four different concentrations ranging from 100 to 0.8 µM. […] Images were taken every 3 h, with one field image per well under 10× magnification. All compounds were tested with duplicate data points and averaged.

[7] = test system: HCT-116 (colorectal carcinoma); experiment: Antiproliferative screening (cytostatic activity); assay type: cell-based; conditions: Homo sapiens, HCT-116, 72 h, read-out: IC50 HCT-116
Method: as §2

[8] = test system: K-562 (chronic myeloid leukemia); experiment: Antiproliferative screening (cytostatic activity); assay type: cell-based; conditions: Homo sapiens, K562, 72 h, read-out: IC50 K-562
Method: as §2

MM.1S (multiple myeloma) = experiment: Antiproliferative screening (cytostatic activity); assay type: cell-based; conditions: Homo sapiens, MM1.S, 72 h, read-out: IC50 MM.1S
Method: as §2

[9] = test system: NCI-H460 (lung carcinoma); experiment: Antiproliferative screening (cytostatic activity); assay type: cell-based; conditions: Homo sapiens, NCI-H460, 72 h, read-out: IC50 NCI-H460
Method: as §2

[10] = test system: Z-138 (non-Hodgkin lymphoma); experiment: Antiproliferative screening (cytostatic activity); assay type: cell-based; conditions: Homo sapiens, Z-138, 72 h, read-out: IC50 Z-138
Method: as §2

[11] = DXT and STS values in nM (footnote)

`COc1cc(NC(C)CCCNC(=O)CCC(=O)Nc2ccc(F)cc2)c2ncccc2c1` (centres unmarked) [Compound 5b, N-(4-Fluorophenyl)-N′-{4-[(6-methoxyquinolin-8-yl)amino]pentyl}butanediamide] showed a melting point of 118 to 120 °C.

In the case of `CN[C@@H]1C[C@H]2O[C@@](C)([C@@H]1OC)n1c3ccccc3c3c4c(c5c6ccccc6n2c5c31)C(=O)NC4` [STS, staurosporine, reference compound], the IC50 [1] was 13.1 nM, the IC50 [2] was 3.56 nM and the IC50 [3] was 6.96 nM.

`COc1cc(NC(C)CCCNC(=O)CCC(=O)Nc2ccc(Cl)cc2)c2ncccc2c1` (centres unmarked) [Compound 5d, N-(4-Chlorophenyl)-N′-{4-[(6-methoxyquinolin-8-yl)amino]pentyl}butanediamide] gave a melting point of 152 to 153 °C.

For `COc1cc(NC(C)CCCNC(=O)CCC(=O)Nc2cccc(C(F)(F)F)c2)c2ncccc2c1` (centres unmarked) [Compound 5e, N′-{4-[(6-Methoxyquinolin-8-yl)amino]pentyl}-N-[3-(trifluoromethyl)phenyl]butanediamide], the melting point was 146 to 149 °C.

With `CO[C@H]1/C=C/O[C@@]2(C)Oc3c(C)c(O)c4c(O)c(c(/C=N/N5CCN(C)CC5)c(O)c4c3C2=O)NC(=O)/C(C)=C\C=C\[C@H](C)[C@H](O)[C@@H](C)[C@@H](O)[C@@H](C)[C@H](OC(C)=O)[C@@H]1C` [RIF, rifampicin, reference compound] the MIC [4] was 2.2 µg/mL (≈ 2.67 µM).

In the case of `COc1cc(NC(C)CCCNC(=O)CCC(=O)Nc2ccc(C(F)(F)F)cc2)c2ncccc2c1` (centres unmarked) [Compound 5f, N′-{4-[(6-Methoxyquinolin-8-yl)amino]pentyl}-N-[4-(trifluoromethyl)phenyl]butanediamide], the melting point was 163 to 165 °C.

In the case of `COc1cc(NC(C)CCCNC(=O)CCC(=O)Nc2cccc(F)c2)c2ncccc2c1` (centres unmarked) [Compound 5a, N-(3-Fluorophenyl)-N′-{4-[(6-methoxyquinolin-8-yl)amino]pentyl}butanediamide], the melting point was 140 to 142 °C.

In the case of `COc1cc(NC(C)CCCNC(=O)CCC(=O)Nc2cccc(Cl)c2)c2ncccc2c1` (centres unmarked) [Compound 5c, N-(3-Chlorophenyl)-N′-{4-[(6-methoxyquinolin-8-yl)amino]pentyl}butanediamide], the melting point was 156 to 158 °C.

In the case of `O=C(O)c1cn(C2CC2)c2cc(N3CCNCC3)c(F)cc2c1=O` [CIP, ciprofloxacin, reference compound], the MIC [5] was 16 µg/mL (≈ 48.3 µM) and the MIC [4] was 0.3 µg/mL (≈ 0.905 µM).

`CC(=O)O[C@@]12CO[C@@H]1C[C@H](O)[C@@]1(C)C(=O)[C@H](O)C3=C(C)[C@@H](OC(=O)[C@H](O)[C@@H](NC(=O)OC(C)(C)C)c4ccccc4)C[C@@](O)([C@@H](OC(=O)c4ccccc4)[C@H]21)C3(C)C` [DXT, docetaxel, reference compound] gave an IC50 [6, 11] of 0.75 nM, an IC50 [7, 11] of 7.66 nM and an IC50 [8, 11] of 1.22 nM. The IC50 (MM.1S (multiple myeloma); [11]) was 3.38 nM, the IC50 [9, 11] was 1.3 nM and the IC50 [10, 11] was 5.42 nM. It also gave an IC50 [1] of 1.24 nM, an IC50 [2] of 1.17 nM and an IC50 [3] of 0.94 nM.

`COc1cc([C@@H]2c3cc4c(cc3[C@@H](O[C@@H]3O[C@@H]5CO[C@@H](C)O[C@H]5[C@H](O)[C@H]3O)[C@H]3COC(=O)[C@H]23)OCO4)cc(OC)c1O` [EPEG, etoposide, reference compound] gave a pIC50 ([6]; IncuCyte imaging) of 6.82, a pIC50 ([7]; IncuCyte imaging) of 5.87 and a pIC50 ([8]; IncuCyte imaging) of 8.00. The pIC50 (MM.1S (multiple myeloma); IncuCyte imaging) was 6.01, the pIC50 ([9]; IncuCyte imaging) was 7.05 and the pIC50 ([10]; IncuCyte imaging) was 7.70. It also gave a pIC50 ([1]; IncuCyte imaging) of 7.52, a pIC50 ([2]; IncuCyte imaging) of 7.40 and a pIC50 ([3]; IncuCyte imaging) of 7.52.

For `NNC(=O)c1ccncc1` [INH, isoniazid, reference compound], the MIC [5] was 5 µg/mL (≈ 36.5 µM) and the MIC [4] was 64 µg/mL (≈ 467 µM).
